Measured values taken from patent US20080089851A1, “Brown Algae Cell Lyophilisate, Method For The Obtention Thereof” (BIOTECHMARINE, priority 2005, published 2008).
“And” between values parts separate entries of the source, which are not always exact repeats. Identical values can stand only once.

Key:
[1] = system: normal human keratinocytes; assay: Transport of proteins (albumin), normal human keratinocytes; assay type: cell-based; conditions: for Capture of albumin-FITC: S.D. 6 mg/ml
Description: The obtained microsomes from human keratinocytes in culture were rinsed 3 times with a buffer, afterwards pre-incubated in 1 ml of the same buffer for 30 minutes at 3° C. This solution was subsequently discarded and the microsomes were placed into the HBSS buffer containing albumin-FITC with stirring in a water bath at 37° C. The capture of albumin is stopped by addition of a Ringer's solution containing 122.5 mM NaCl; 5.4 mM KCl; 1.2 mM CaCl2; 0.8 mM MgCl2; 0.8 Na2HPO4; 0.2 NaHPO4; 5.5 mM glucose; 10 mM HEPES, pH 7,4. Afterwards, the microsomes were treated with Triton X-100 at (0.1% v/v in 3-(N-morpholino) propanesulfonic acid 20 mM, pH 7.4). The fluorescence was quantified with a spectrophotometer (excitation 480 nm: emission 520 nm). The kinetics of incubation was performed between 30 and 120 seconds. 7.2—Assessment of the Rate of Transport of Macromolecules at the Level of Normal Human Keratinocytes The applied method was that of explants allowing to obtain, from a biopsy of human skin, keratinocytes in primary cultures. The assays were carried out on keratinocytes between the 2nd and the 4th passage in order to ensure a reproductibility between the different experiences. The keratinocytes were divided into multiwell plates (6 wells) at a rate of 10^5 cells per well in 1 ml of culture medium […] supplemented with insulin and hydrocortisone. The cells were incubated in the presence and absence of the investigated product. 7.2.3—Transport of Proteins (Albumin) The assay was carried out in triplicate on normal human keratinocytes in culture. • Charge 1: negative control not receiving any product. • Charge 2: positive control (Nocodazole, 6 mg/ml) • Charge 3-5: treated receiving the investigated product (3 concentrations) • Charge 6-8: treated with Nocodazole, 6 mg/ml, and with the investigated product (3 concentrations) The treatment of keratinocytes with the BB product in the presence and absence of Nocodazole, 6 mg/ml, was carried out for 120 minutes at 37° C. The membrane microsomes were separated by differential centrifugation. The same protocol of capture of albumin-FITC was used for the determination of the rate of transport of albumin (cf. 3.1.4.2)

[2] = system: microsomes of human keratinocytes; assay: Transport of proteins (albumin), direct treatment of isolated microsomes; assay type: biochemical; conditions: for Capture of albumin-FITC: ND 6 mg/ml
Description: 7.1—Assessment of the Rate of Transport of Macromolecules (Glucids, Lipids and Proteins) in a System of Isolated Microsomes. Direct Effect of the BB Product on Isolated Microsomes: The microsomes of human keratinocytes form a membrane fraction obtained by high-speed differential centrifugation of a cell homogenate. This preparation of microsomes requires the addition of exogenous cofactors such as NADPH. 7.1.3—Transport of Proteins (Albumin) The assay was performed in triplicate after the direct treatment of microsomes. • Charge 1: negative control not receiving any product • Charge 2: positive control (Nocodazole, 6 mg/ml) • Charge 3-5: treated receiving the investigated product (3 concentrations) • Charge 6-8: treated with Nocodazole 6 mg/ml, and with the investigated product (3 concentrations) The obtained microsomes from human keratinocytes in culture were rinsed 3 times with a buffer, afterwards pre-incubated in 1 ml of the same buffer for 30 minutes at 3° C. This solution was subsequently discarded and the microsomes were placed into the HBSS buffer containing albumin-FITC with stirring in a water bath at 37° C. The capture of albumin is stopped by addition of a Ringer's solution containing 122.5 mM NaCl; 5.4 mM KCl; 1.2 mM CaCl2; 0.8 mM MgCl2; 0.8 Na2HPO4; 0.2 NaHPO4; 5.5 mM glucose; 10 mM HEPES, pH 7,4. Afterwards, the microsomes were treated with Triton X-100 at (0.1% v/v in 3-(N-morpholino) propanesulfonic acid 20 mM, pH 7.4). The fluorescence was quantified with a spectrophotometer (excitation 480 nm: emission 520 nm). The kinetics of incubation was performed between 30 and 120 seconds. The treatment of microsomes with the BB product alone or in the presence of Nocodazole (ND) were carried out at the same time as the introduction of albumin-FITC into the incubation medium. The assay of proteins was performed following the BRADFORD method. The increase in absorbance at 595 nm is proportional to the concentration of proteins measured with a spectrophotometer.

[3] = system: human keratinocytes in senescence; assay: Transport of proteins (albumin), human keratinocytes in senescence; assay type: cell-based; conditions: for Capture of albumin-FITC: ND 6 mg/ml
Description: The obtained microsomes from human keratinocytes in culture were rinsed 3 times with a buffer, afterwards pre-incubated in 1 ml of the same buffer for 30 minutes at 3° C. This solution was subsequently discarded and the microsomes were placed into the HBSS buffer containing albumin-FITC with stirring in a water bath at 37° C. The capture of albumin is stopped by addition of a Ringer's solution containing 122.5 mM NaCl; 5.4 mM KCl; 1.2 mM CaCl2; 0.8 mM MgCl2; 0.8 Na2HPO4; 0.2 NaHPO4; 5.5 mM glucose; 10 mM HEPES, pH 7,4. Afterwards, the microsomes were treated with Triton X-100 at (0.1% v/v in 3-(N-morpholino) propanesulfonic acid 20 mM, pH 7.4). The fluorescence was quantified with a spectrophotometer (excitation 480 nm: emission 520 nm). The kinetics of incubation was performed between 30 and 120 seconds.
7.3—Assessment of the Rate of Transport of Macromolecules at the Level of Human Keratinocytes in Senescence
The senescence is a phenomenon of cellular aging, where the cells are arrested in the phase G1 of the cell cycle and never enter the synthesis phase leading to the cell division. Senescent cells are characterized by their slow metabolism at synthesis and transport of macromolecules levels.
The cells in culture deprived of serum stop their growth, but continue to progress through the cell cycle until they reach the phase G1.
The applied method allowed to obtain, from a human skin biopsy, primary cultures of keratinocytes. The assays were performed on keratinocytes, between the 8th and the 10th passage, in order to ensure the presence of senescent cells at control cells level.
The keratinocytes were seeded in multiwell plates (6 wells) at a rate of 10^5 cells per well in 3 ml of culture medium […] supplemented with EGF, hydrocortisone, insulin and gentamicyn. Afterwards they are maintained for 5 days in incubator under CO2.
7.3.3—Transport of Proteins (Albumin)
The assay was carried out in triplicate on human keratinocytes in senescence. • Charge 1: negative control not receiving any product. • Charge 2: positive control (Nocodazole, 6 mg/ml) • Charge 3-5: treated receiving the investigated product (3 concentrations) • Charge 6-8: treated with Nocodazole, 6 mg/ml, and the investigated product (3 concentrations)
The treatment of keratinocytes with the BB product in the presence and absence of Nocodazole, 6 mg/ml, was carried out for 120 minutes at 37° C. The membrane microsomes were separated by differential centrifugation.
The same protocol of capture of albumin-FITC was applied to determine the rate of transport of albumin (cf. 6.1.3)

[4] = system: reconstructed melanized human epidermis; assay: Pigmentation test: biochemical quantification of the melanic content; assay type: cell-based; conditions: α-MSH 100 nM
Description: 1. —Materials and Methods
The BB product is diluted in ethanol then incorporated into a cosmetic formulation.
a—BB product incorporated in formulation at 0.05%
b—BB product incorporated in formulation at 0.15%
c—BB product incorporated in formulation at 0.30%
They are conserved at 4° C. until use thereof.
2. —Biochemical Assessment
At the end of the incubation, the melanin contained in cell lysates was quantified by a spectrophotometrical method. A range of melanin was carried out in parallel with the assay.
The results are expressed in […] of melanin per ml of lysate of the cell carpets (average +/−standard deviation SD).
The statistical significance of the observed differences between the conditions <<treated >> and <<controls >> was assessed by variance analysis to a factor (One Way ANOVA) followed by a test of Bonferroni t-test (*:p<0.05;**:p<0.01).

[5] = system: reconstructed melanized human epidermal skins; assay: Pigmentation test: melanic content by image analysis (Fontana Masson); assay type: cell-based; conditions: WITHOUT UV; α-MSH 100 nM
Description: 3. —Histological Assessment
The epidermis skins ware fixed in formaldehyde from the end of incubation, then embedded in paraffin blocs. Subsequently sections of 4 μm thickness were cut.
Said slides by condition were carried out with a magnification ×400. The visualisable melanin on these slides was quantified by image analysis using the Image J program.
The results are expressed in form of the surface occupied by the melanin (number of pixels the grey scale of which is between 0 and 100; 0=black/255=white) in each slide (average +/−standard deviation, SD).
The statistical significance of the noted differences between the treated conditions and controls was assessed by a Student's test (*: p<0.05, **: p<0.01; ***: p<0.001).

Question: What does the source list for COC(=O)Nc1nc2ccc(C(=O)c3cccs3)cc2[nH]1 [ND, Nocodazole]?
Answer: rate of transport of proteins (in words) ([1]; Nocodazole 6 mg/ml alone): inhibits; Capture of albumin-FITC ([1]; 30 s): 0.09 μg/mg proteins; Capture of albumin-FITC ([1]; 60 s): 0.22 μg/mg proteins; Capture of albumin-FITC ([1]; 90 s): 0.26 μg/mg proteins; Capture of albumin-FITC ([1]; 120 s): 0.37 μg/mg proteins; Capture of albumin-FITC ([2]; 30 s): 0.11 μg/mg proteins; Capture of albumin-FITC ([2]; 60 s): 0.29 μg/mg proteins; Capture of albumin-FITC ([2]; 90 s): 0.34 μg/mg proteins; Capture of albumin-FITC ([2]; 120 s): 0.43 μg/mg proteins; rate of transport of proteins (in words) ([2]; Nocodazole 6 mg/ml alone): strongly inhibits; Capture of albumin-FITC ([3]; 30 s): 0.06 μg/mg of proteins; Capture of albumin-FITC ([3]; 60 s): 0.11 μg/mg of proteins; Capture of albumin-FITC ([3]; 90 s): 0.19 μg/mg of proteins; Capture of albumin-FITC ([3]; 120 s): 0.3 μg/mg of proteins; rate of transport of proteins (in words) ([3]; Nocodazole 6 mg/ml alone): inhibits

Question: α-MSH was tested. Which “Melanin, % medium alone” value ([4]; +UVA) did it give?
Answer: Its value is 141%.

Question: And the “Melanin, Average” value ([4]; +UVA)?
Answer: Its value is 96.1 µg/mL.

Question: What about the “Melanin, single values” ([4]; +UVA) of the same compound?
Answer: The value was 95.6 µg/mL and 84.7 µg/mL and 107.9 µg/mL.

Question: And the “Melanin, % medium alone” value ([4]; +UVB)?
Answer: The value was 128%.

Question: And the “Melanin, Average” value ([4]; +UVB)?
Answer: Its value is 106.5 µg/mL.

Question: And the “Melanin, single values” ([4]; +UVB)?
Answer: Its value is 99.5 µg/mL and 115.5 µg/mL and 104.6 µg/mL.

Question: What about the “Melanin, % medium alone” value ([4]; WITHOUT UV) of the same compound?
Answer: The value was 141%.

Question: What about the “Melanin, Average” value ([4]; WITHOUT UV) of the same compound?
Answer: Its value is 80.7 µg/mL.

Question: And the “Melanin, single values” ([4]; WITHOUT UV)?
Answer: The value was 70.3 µg/mL and 86.9 µg/mL and 85 µg/mL.

Question: And the “Surface occupied by the melanin, % medium alone” value [5]?
Answer: The value was 208%.

Question: What about the “Surface occupied by the melanin, Average” value [5] of the same compound?
Answer: Its value is 40277.8 pixels.
